Laboratory results reported in patent publication US20240025862A1, “SUBSTITUTED N-PHENYLURACILS AND SALTS THEREOF, AND USE THEREOF AS HERBICIDAL ACTIVE SUBSTANCES” (Bayer Aktiengesellschaft, priority 2020, published 2024).

What was measured:
Assay type in all cases: in vivo
Viola tricolor (VIOTR) = experiment: Post-emergence herbicidal action, greenhouse pot test
How it was run: (§1)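 Activity was scored by eye about 3 weeks after treatment against untreated plants, where 100% means dead plants and 0% means no difference. Plants at the one-leaf stage received a foliar spray of WP or EC formulations in water plus 0.5% additive (600 l/ha, up to 20 g/ha). Plants were grown in sandy loam pots in a greenhouse for 2–3 weeks before spraying.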

Veronica persica (VERPE) = experiment: as above
How it was run: as §1

Avena fatua (AVEFA) = experiment: as above; details: rated visually after about 3 weeks vs untreated controls, 100% = plants have died
How it was run: as §1

Lolium rigidum (LOLRI) = experiment: as above; details: dosage 20 g/ha
How it was run: as §1

[1] = test system: Pharbitis purpurea (PHBPU); experiment: as above
How it was run: as §1

[2] = test system: Polygonum convolvulus (POLCO); experiment: as above
How it was run: as §1

[3] = test system: Abutilon theophrasti (ABUTH); experiment: as above; details: rated visually after about 3 weeks vs untreated controls, 100% = plants have died
How it was run: as §1

[4] = test system: Amaranthus retroflexus (AMARE); experiment: as above; details: rated visually after about 3 weeks vs untreated controls, 100% = plants have died
How it was run: as §1

Oryza sativa (ORYSA) = experiment: Post-emergence crop plant compatibility, greenhouse pot test (also comparative test C); details: for Post-emergence action against ORYSA (crop plant compatibility): vs untreated controls
How it was run: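 Visual damage versus untreated plants (0% = like control, 100% = plants died) was scored about 3 weeks after a post-emergence spray in greenhouse pots. Treatment: one-leaf stage, WP or EC in water at 600 l/ha with 0.5% additive; a/b/c mark different dosages on the same crop.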

[5] = test system: Triticum aestivum (TRZAS); experiment: Post-emergence crop plant compatibility, greenhouse pot test; details: vs untreated controls
How it was run: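 Visual % damage vs untreated controls, scored ~3 weeks post-spray (100% = dead, 0% = as control). Plants in sandy loam, greenhouse; treated at one-leaf stage, 2–3 wk after sowing. WP/EC, aqueous, 0.5% additive, 600 l/ha. Suffixes a/b/c = different dosages.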

[6] = test system: Matricaria inodora (MATIN); experiment: Post-emergence herbicidal action, greenhouse pot test (also comparative test C)
How it was run: (§2)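 Visual rating against untreated controls, about 3 weeks after spraying, from 0% (like control) to 100% (plants dead). Weeds were treated at the one-leaf stage, 2–3 weeks after sowing in sandy loam, with aqueous WP/EC spray containing 0.5% additive at 600 l/ha. Doses were ≤20 g/ha, or ≤5 g/ha for comparative test C.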

Setaria viridis (SETVI) = experiment: as above; details: for Post-emergence action against SETVI: 20 g/ha
How it was run: as §2

[7] = test system: Echinochloa crus-galli (ECHCG); experiment: as above; details: for Post-emergence action at 1.25 g/ha against ECHCG in %: rated visually after about 3 weeks vs untreated controls, 100% = plants have died
How it was run: as §2

[8] = test system: Alopecurus myosuroides (ALOMY); experiment: as above; details: rated visually after about 3 weeks vs untreated controls, 100% = plants have died
How it was run: as §2

| Compound | Post-emergence action against VIOTR (Viola tricolor (VIOTR); 1.25 g/ha) [%] | Post-emergence action against VIOTR (Viola tricolor (VIOTR); 5 g/ha) [%] | Post-emergence action against VIOTR (Viola tricolor (VIOTR); 20 g/ha) [%] | Post-emergence action against VERPE (Veronica persica (VERPE); 1.25 g/ha) [%] | Post-emergence action against VERPE (Veronica persica (VERPE); 5 g/ha) [%] | Post-emergence action against VERPE (Veronica persica (VERPE); 20 g/ha) [%] | Post-emergence action at 20 g/ha against AVEFA in % (Avena fatua (AVEFA)) [%] | Post-emergence action against LOLRI in % (Lolium rigidum (LOLRI)) [%] | Post-emergence action against PHBPU in % ([1]; dosage 1.25 g/ha) [%] | Post-emergence action against PHBPU in % ([1]; dosage 5 g/ha) [%] | Post-emergence action against PHBPU in % ([1]; dosage 20 g/ha) [%] | Post-emergence action against POLCO in % ([2]; dosage 5 g/ha) [%] | Post-emergence action against POLCO in % ([2]; dosage 20 g/ha) [%] | Post-emergence action at 1.25 g/ha against ABUTH in % [3] [%] | Post-emergence action at 5 g/ha against ABUTH in % [3] [%] | Post-emergence action at 20 g/ha against ABUTH in % [3] [%] | Post-emergence action at 1.25 g/ha against AMARE in % [4] [%] | Post-emergence action at 5 g/ha against AMARE in % [4] [%] | Post-emergence action at 20 g/ha against AMARE in % [4] [%] | Post-emergence action against ORYSA (crop plant compatibility) (Oryza sativa (ORYSA); 1.25 g/ha) [%] | also measured |
| --- | --- | --- | --- | --- | --- | --- | --- | --- | --- | --- | --- | --- | --- | --- | --- | --- | --- | --- | --- | --- | --- |
| Cn1c(C(F)(F)F)cc(=O)n(-c2cc(Oc3ccccc3OCC(=O)OCc3cccnn3)c(Br)cc2F)c1=O [I.8-291] | 100 | 100 | 100 | 100 | 100 | 100 | 90 | 80 | 100 | 100 | 100 | 100 | 100 | 100 | 100 | 100 | 100 | 100 | 100 | 0 | Post-emergence action against ORYSA (crop plant compatibility) (Oryza sativa (ORYSA); 5 g/ha): 20%; Post-emergence action against TRZAS (crop plant compatibility) ([5]; 1.25 g/ha): 10%; Post-emergence action against TRZAS (crop plant compatibility) ([5]; 5 g/ha): 20%; Post-emergence action against MATIN in % ([6]; dosage 20 g/ha): 100%; Post-emergence action against SETVI (Setaria viridis (SETVI)): 100%; Post-emergence action against SETVI in % (Setaria viridis (SETVI); dosage 1.25 g/ha): 100%; Post-emergence action against SETVI in % (Setaria viridis (SETVI); dosage 5 g/ha): 100%; Post-emergence action at 1.25 g/ha against ECHCG in % [7]: 100%; Post-emergence action against ECHCG in % ([7]; dosage 5 g/ha): 100%; Post-emergence action against ECHCG in % ([7]; dosage 20 g/ha): 100%; Post-emergence action at 1.25 g/ha against ALOMY in % [8]: 80%; Post-emergence action at 5 g/ha against ALOMY in % [8]: 90%; Post-emergence action at 20 g/ha against ALOMY in % [8]: 100% |
| Cn1c(C(F)(F)F)cc(=O)n(-c2cc(Oc3ccccc3OCC(=O)OCCOC(F)(F)F)c(Cl)cc2F)c1=O [I.7-41] | 100 | 100 | 100 | 80 | 100 | 100 | 80 | 80 | 100 | 100 | 100 | 100 | 100 | 100 | 100 | 100 | 100 | 100 | 100 | 0 | Post-emergence action at 5 g/ha against AVEFA in % (Avena fatua (AVEFA)): 80%; Post-emergence action against ORYSA (crop plant compatibility) (Oryza sativa (ORYSA); 5 g/ha): 20%; Post-emergence action against TRZAS (crop plant compatibility) ([5]; 1.25 g/ha): 0%; Post-emergence action against TRZAS (crop plant compatibility) ([5]; 5 g/ha): 20%; Post-emergence action against MATIN in % ([6]; dosage 1.25 g/ha): 90%; Post-emergence action against MATIN in % ([6]; dosage 5 g/ha): 90%; Post-emergence action against MATIN in % ([6]; dosage 20 g/ha): 100%; Post-emergence action against SETVI (Setaria viridis (SETVI)): 100%; Post-emergence action against SETVI in % (Setaria viridis (SETVI); dosage 1.25 g/ha): 100%; Post-emergence action against SETVI in % (Setaria viridis (SETVI); dosage 5 g/ha): 100%; Post-emergence action at 1.25 g/ha against ECHCG in % [7]: 90%; Post-emergence action against ECHCG in % ([7]; dosage 5 g/ha): 100%; Post-emergence action against ECHCG in % ([7]; dosage 20 g/ha): 100%; Post-emergence action at 1.25 g/ha against ALOMY in % [8]: 100%; Post-emergence action at 5 g/ha against ALOMY in % [8]: 100%; Post-emergence action at 20 g/ha against ALOMY in % [8]: 100% |
| Cn1c(C(F)(F)F)cc(=O)n(-c2cc(Oc3ccccc3OCC(=O)OCc3cccnn3)c(C#N)cc2F)c1=O [I.9-291] | 100 | 100 | 100 | 100 | 100 | 100 | 80 | 90 | 100 | 100 | 100 | 90 | 100 | 100 | 100 | 100 | 100 | 100 | 100 | 0 | Post-emergence action at 5 g/ha against AVEFA in % (Avena fatua (AVEFA)): 80%; Post-emergence action against POLCO in % ([2]; dosage 1.25 g/ha): 80%; Post-emergence action against ORYSA (crop plant compatibility) (Oryza sativa (ORYSA); 5 g/ha): 0%; Post-emergence action against ORYSA in % (Oryza sativa (ORYSA); 20 g/ha, crop plant compatibility): 20%; Post-emergence action against TRZAS (crop plant compatibility) ([5]; 1.25 g/ha): 20%; Post-emergence action against TRZAS (crop plant compatibility) ([5]; 5 g/ha): 20%; Post-emergence action against MATIN in % ([6]; dosage 5 g/ha): 80%; Post-emergence action against MATIN in % ([6]; dosage 20 g/ha): 100%; Post-emergence action against SETVI (Setaria viridis (SETVI)): 100%; Post-emergence action against SETVI in % (Setaria viridis (SETVI); dosage 1.25 g/ha): 100%; Post-emergence action against SETVI in % (Setaria viridis (SETVI); dosage 5 g/ha): 100%; Post-emergence action against ECHCG in % ([7]; dosage 5 g/ha): 90%; Post-emergence action against ECHCG in % ([7]; dosage 20 g/ha): 100%; Post-emergence action at 1.25 g/ha against ALOMY in % [8]: 80%; Post-emergence action at 5 g/ha against ALOMY in % [8]: 90%; Post-emergence action at 20 g/ha against ALOMY in % [8]: 100% |
